The subject of one experiment is IE^k. In kind it is binding, mouse. To be noted: read-out: Capacity to bind purified IE^k, IC50.
Another experiment addresses T1, IE^d (Mus musculus, UniProt P01904+P01915).
T1 construct: Various cell lines were used as sources of purified human and mouse class II molecules; endogenous in cells; host or cells: A20
T1 sequence (P01904 26-255): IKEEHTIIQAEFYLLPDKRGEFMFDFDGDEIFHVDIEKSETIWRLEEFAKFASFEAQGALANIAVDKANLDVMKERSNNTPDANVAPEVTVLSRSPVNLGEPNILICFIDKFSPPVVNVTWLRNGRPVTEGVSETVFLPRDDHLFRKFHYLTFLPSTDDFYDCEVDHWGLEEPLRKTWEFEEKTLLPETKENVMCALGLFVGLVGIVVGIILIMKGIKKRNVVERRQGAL
T1 sequence (P01915 27-264 limits assumed): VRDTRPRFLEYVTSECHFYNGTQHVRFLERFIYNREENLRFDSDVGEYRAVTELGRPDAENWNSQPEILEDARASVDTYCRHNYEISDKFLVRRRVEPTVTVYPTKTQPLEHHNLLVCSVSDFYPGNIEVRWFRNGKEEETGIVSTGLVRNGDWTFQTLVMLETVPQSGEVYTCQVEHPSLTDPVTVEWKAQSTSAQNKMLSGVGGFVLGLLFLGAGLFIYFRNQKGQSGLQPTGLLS
The experiment is described as follows: biochemical. Type of experiment: binding.

Another experiment has as its target T2, IA^b (Mus musculus, UniProt P14434+P14483).
T2 construct: Various cell lines were used as sources of purified human and mouse class II molecules; endogenous in cells; host or cells: DB27.4
T2 sequence (P14434 24-256): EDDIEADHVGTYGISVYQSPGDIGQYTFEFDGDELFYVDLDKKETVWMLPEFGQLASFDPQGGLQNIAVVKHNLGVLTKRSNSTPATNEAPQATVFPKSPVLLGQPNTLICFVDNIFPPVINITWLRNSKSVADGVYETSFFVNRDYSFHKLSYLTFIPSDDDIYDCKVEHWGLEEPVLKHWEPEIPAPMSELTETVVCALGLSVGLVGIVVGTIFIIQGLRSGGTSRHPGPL
T2 sequence (P14483 28-265): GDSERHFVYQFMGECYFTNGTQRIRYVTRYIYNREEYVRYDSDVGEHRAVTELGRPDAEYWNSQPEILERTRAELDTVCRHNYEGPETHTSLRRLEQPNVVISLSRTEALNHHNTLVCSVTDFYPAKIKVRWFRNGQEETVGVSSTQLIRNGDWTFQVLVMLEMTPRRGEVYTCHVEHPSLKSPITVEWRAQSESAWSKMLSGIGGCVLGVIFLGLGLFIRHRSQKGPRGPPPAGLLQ
The experiment is described as follows: biochemical. In kind it is binding.

A further experiment deals with T3, IA^s (Mus musculus, UniProt P06345+P14437).
T3 construct: Various cell lines were used as sources of purified human and mouse class II molecules; endogenous in cells; host or cells: LS102.9
T3 sequence (P14437 1-233): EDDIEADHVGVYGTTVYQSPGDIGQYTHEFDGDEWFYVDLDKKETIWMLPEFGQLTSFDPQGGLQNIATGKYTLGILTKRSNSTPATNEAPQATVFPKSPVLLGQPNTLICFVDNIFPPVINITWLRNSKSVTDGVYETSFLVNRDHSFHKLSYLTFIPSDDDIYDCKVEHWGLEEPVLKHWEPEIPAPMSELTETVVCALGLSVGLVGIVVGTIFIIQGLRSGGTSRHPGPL
T3 sequence (P06345 28-263): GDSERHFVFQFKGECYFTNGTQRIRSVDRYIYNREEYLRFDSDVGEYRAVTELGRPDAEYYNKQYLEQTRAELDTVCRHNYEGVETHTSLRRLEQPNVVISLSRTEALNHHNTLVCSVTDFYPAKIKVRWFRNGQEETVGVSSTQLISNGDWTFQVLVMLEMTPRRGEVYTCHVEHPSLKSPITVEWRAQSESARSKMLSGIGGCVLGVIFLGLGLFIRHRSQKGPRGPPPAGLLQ
The experiment is described as follows: biochemical. Type of experiment: binding. Conditions: Table III; read-out: Capacity to bind purified IA^s, IC50.

A further experiment has as its target T4, IA^k (Mus musculus, UniProt P01910+P06343).
T4 construct: Various cell lines were used as sources of purified human and mouse class II molecules; endogenous in cells; host or cells: CH12
Kind of experiment: biochemical. In kind it is binding. Conditions: Table III; read-out: Capacity to bind purified IA^k, IC50.

A further experiment has as its target T5, IA^d (Mus musculus, UniProt P01921+P04228).
T5 construct: Various cell lines were used as sources of purified human and mouse class II molecules; endogenous in cells; host or cells: A20
T5 sequence (P04228 24-256): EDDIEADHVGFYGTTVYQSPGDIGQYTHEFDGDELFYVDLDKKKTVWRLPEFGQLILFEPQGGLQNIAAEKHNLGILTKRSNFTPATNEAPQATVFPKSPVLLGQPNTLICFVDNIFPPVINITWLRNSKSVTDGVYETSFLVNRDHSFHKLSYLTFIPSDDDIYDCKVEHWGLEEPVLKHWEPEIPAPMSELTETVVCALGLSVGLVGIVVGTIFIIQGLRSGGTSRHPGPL
T5 sequence (P01921 28-265): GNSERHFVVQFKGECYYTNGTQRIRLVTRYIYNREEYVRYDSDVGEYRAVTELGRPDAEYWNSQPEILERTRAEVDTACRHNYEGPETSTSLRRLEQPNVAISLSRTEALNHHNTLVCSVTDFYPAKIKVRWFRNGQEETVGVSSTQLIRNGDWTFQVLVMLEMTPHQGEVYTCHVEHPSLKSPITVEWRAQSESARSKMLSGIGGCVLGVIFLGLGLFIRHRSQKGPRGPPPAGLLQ
The experiment is described as follows: biochemical. Type of experiment: binding. To be noted: Table III; read-out: Capacity to bind purified IA^d, IC50.

Another experiment has as its target DRw53 (Homo sapiens, UniProt P01903+P13762).
The next experiment has as its target DR7. To be noted: for IC50: read-out: PADRE Class II Binding Affinities DR7.
Another experiment addresses DR3 (Homo sapiens, UniProt P01903+P01911, A100K/A102G/A103R/A169T/F55Y/I96L/K41T/L162R/M171V/P40S/Q125H/Q178H/Q39Y/R42S/S66N/T106N/T262R/W38E/Y61H). Conditions: Table VIII A.
For a further experiment, the system named is human PBMC T cell lines. In kind it is cell-based.
The test system of a further experiment is C57BL/6J (H-2^b+) mice. To be noted: mouse, in vivo.
Setting [1] is: Table III, read-out: Capacity to bind purified IE^d, IC50.

9 compounds from patent US6413935B1, “Induction of immune response against desired determinants” (priority 1993, dated 2002) can be followed below.

Read-outs that look alike come from different tables or passages of the source. Non-standard residues stand in square brackets, D forms with d. Residues, ends and D or L forms follow the SMILES beside them. Cha = N[C@@H](CC1CCCCC1)C(=O)O A value given as a limit tells only on which side of the number the result lay.

T4 sequence (P01910 24-256): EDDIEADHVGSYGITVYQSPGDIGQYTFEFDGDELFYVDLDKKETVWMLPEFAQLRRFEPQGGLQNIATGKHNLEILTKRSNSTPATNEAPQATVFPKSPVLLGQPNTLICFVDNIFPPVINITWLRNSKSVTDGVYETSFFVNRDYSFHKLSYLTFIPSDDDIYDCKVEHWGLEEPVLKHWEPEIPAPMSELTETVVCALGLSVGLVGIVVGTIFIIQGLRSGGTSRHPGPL
T4 sequence (P06343 28-263): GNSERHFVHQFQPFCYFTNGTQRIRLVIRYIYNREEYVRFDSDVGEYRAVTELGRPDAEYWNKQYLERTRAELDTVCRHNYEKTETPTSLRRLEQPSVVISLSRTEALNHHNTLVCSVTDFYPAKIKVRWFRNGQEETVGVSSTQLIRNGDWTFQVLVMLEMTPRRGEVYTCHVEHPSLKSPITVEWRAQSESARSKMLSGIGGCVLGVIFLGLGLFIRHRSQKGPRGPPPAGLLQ
Chain of DR3 (P01903 26-254): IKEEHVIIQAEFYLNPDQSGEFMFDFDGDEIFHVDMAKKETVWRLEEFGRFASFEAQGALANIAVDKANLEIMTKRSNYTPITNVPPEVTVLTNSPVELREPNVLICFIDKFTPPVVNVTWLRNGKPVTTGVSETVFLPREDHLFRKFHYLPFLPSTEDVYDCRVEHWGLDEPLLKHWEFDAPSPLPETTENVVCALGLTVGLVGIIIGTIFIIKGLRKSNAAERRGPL
Chain of DR3 (P01911 30-266 with the stated changes): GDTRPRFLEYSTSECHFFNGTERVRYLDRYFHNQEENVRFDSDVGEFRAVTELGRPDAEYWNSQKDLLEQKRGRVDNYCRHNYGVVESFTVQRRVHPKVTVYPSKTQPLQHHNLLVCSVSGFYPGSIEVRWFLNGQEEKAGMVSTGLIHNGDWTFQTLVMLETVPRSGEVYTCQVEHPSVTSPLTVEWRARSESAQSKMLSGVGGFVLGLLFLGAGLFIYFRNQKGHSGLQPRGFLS
Chain of DRw53 (P01903 26-254): as the sequence (P01903 26-254) above
Chain of DRw53 (P13762 30-266): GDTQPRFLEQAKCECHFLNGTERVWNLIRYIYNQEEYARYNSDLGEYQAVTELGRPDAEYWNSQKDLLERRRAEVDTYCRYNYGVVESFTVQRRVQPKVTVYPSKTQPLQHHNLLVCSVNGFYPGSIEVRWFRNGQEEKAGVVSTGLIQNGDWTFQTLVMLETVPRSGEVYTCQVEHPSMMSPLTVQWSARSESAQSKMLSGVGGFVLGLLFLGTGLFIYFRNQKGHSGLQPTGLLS

As for `CC[C@H](C)[C@H](NC(=O)[C@@H]1CCCN1C(=O)[C@H](C)NC(=O)[C@H](CC(N)=O)NC(=O)[C@@H]1CCCN1C(=O)[C@@H]1CCCN1C(=O)[C@H](CCCNC(=N)N)NC(=O)[C@H](Cc1ccc(O)cc1)NC(=O)[C@H](C)NC(=O)[C@@H]1CCCN1C(=O)[C@@H]1CCCN1C(=O)[C@@H](N)[C@@H](C)O)C(=O)N[C@@H](CC(C)C)C(=O)O` [HBVc 128-140, reference compound], the IC50 in the experiment with IE^k (Table III) was greater than 10000 nM.

Take `CC[C@H](C)[C@H](NC(=O)CNC(=O)[C@H](Cc1ccc(O)cc1)NC(=O)[C@H](CC(=O)O)NC(=O)[C@@H](NC(=O)[C@H](CO)NC(=O)CNC(=O)[C@H](CC(=O)O)NC(=O)[C@@H](NC(=O)[C@@H](N)CC(N)=O)[C@@H](C)O)[C@@H](C)O)C(=O)N[C@@H](CC(C)C)C(=O)N[C@@H](CCC(N)=O)C(=O)N[C@H](C(=O)N[C@@H](CC(N)=O)C(=O)N[C@@H](CO)C(=O)N[C@@H](CCCNC(=N)N)C(=O)O)[C@@H](C)CC` [HEL46-61]: the IC50 on IE^d (setting [1]) was 8500 nM; at IA^b, 7000 nM; on IA^s, greater than 10000 nM; at IA^k, 20 nM; at IA^d, 1220 nM.

With `CC[C@H](C)[C@H](NC(=O)[C@H](C)NC(=O)[C@H](CCCCN)NC(=O)[C@H](CC(C)C)NC(=O)[C@H](CCCNC(=N)N)NC(=O)[C@H](CCCNC(=N)N)NC(=O)[C@H](C)NC(=O)[C@H](CC(=O)O)NC(=O)[C@H](CCC(=O)O)NC(=O)[C@H](CC(C)C)NC(=O)[C@@H](N)Cc1ccc(O)cc1)C(=O)N[C@@H](Cc1ccc(O)cc1)C(=O)N[C@@H](CCC(=O)O)C(=O)N[C@@H](CCCCN)C(=O)N[C@@H](CCCCN)C(=O)N[C@@H](CCCCN)C(=O)O` [Iambda rep 12-26], the IC50 at IE^d (Allele IEd, read-out: Avg. IC50 of assay standard) is 170 nM; on IA^b, greater than 10000 nM; on IA^s, greater than 10000 nM; at IA^k it was greater than 10000 nM; at IA^d, 1100 nM.

As for `CC(C)C[C@H](NC(=O)[C@H](Cc1c[nH]c2ccccc12)NC(=O)[C@H](CCCCN)NC(=O)CNC(=O)[C@H](CC(C)C)NC(=O)[C@H](CO)NC(=O)[C@@H](N)Cc1c[nH]cn1)C(=O)NCC(=O)N[C@@H](Cc1c[nH]cn1)C(=O)N1CCC[C@H]1C(=O)N[C@@H](CC(=O)O)C(=O)N[C@@H](CCCCN)C(=O)N[C@@H](Cc1ccccc1)C(=O)O` [PLP 139-151], the IC50 at IE^d (setting [1]) is greater than 10000 nM; on IA^b, greater than 3100 nM; on IA^s, 86 nM; on IA^k it was greater than 10000 nM; on IA^d, greater than 10000 nM.

In the case of `CC(C)C[C@H](NC(=O)[C@@H](NC(=O)[C@H](C)NC(=O)[C@H](CCC(=O)O)NC(=O)[C@H](C)NC(=O)[C@H](C)NC(=O)[C@H](CC1CCCCC1)NC(=O)[C@H](C)NC(=O)[C@@H](C)N)[C@@H](C)O)C(=O)N[C@@H](CCCCN)C(=O)N[C@@H](C)C(=O)N[C@@H](C)C(=O)N[C@H](C)C(N)=O` [Peptide 906.19], the “Increase in DR53 reactivity” value at DRw53 stood at 20 fold. Besides, the IC50 is 6.5 nM in the experiment on DR5 (read-out: PADRE Class II Binding Affinities DR5) and 250000 nM in the experiment with DR7. The “PADRE Class II Binding Affinities DR7” value on DR7 is “DR7 reactivity was lost”.

For `CC(C)C[C@H](NC(=O)[C@@H](NC(=O)[C@H](C)NC(=O)[C@H](CCC(N)=O)NC(=O)[C@H](C)NC(=O)[C@H](C)NC(=O)[C@H](CC1CCCCC1)NC(=O)[C@H](C)NC(=O)[C@@H](C)N)[C@@H](C)O)C(=O)N[C@@H](CCCCN)C(=O)N[C@@H](C)C(=O)N[C@@H](C)C(=O)N[C@H](C)C(N)=O` [Peptide 906.20] (H-[dA]A[Cha]AAQATLKAA[dA]-NH2; N-terminus and C-terminus assumed), the IC50 turned out to be 4.1 nM in the experiment on DR5 (read-out: PADRE Class II Binding Affinities DR5, Table VIII A); 2500 nM in the experiment on DR7 (Table VIII A); 652 nM with DQ3.1 (read-out: PADRE Class II Binding Affinities, Table VIII A). Further, on DR3, the “PADRE Class II Binding Affinities DR3” value is on record as “loss of DR3 binding”. Besides, the “Loss of DR7 binding reactivity” value in the experiment on DR7 (relative to parent 760.57) was found to be 30 fold.

Take `CC(C)C[C@H](NC(=O)[C@@H](NC(=O)[C@H](Cc1c[nH]c2ccccc12)NC(=O)[C@H](C)NC(=O)[C@H](C)NC(=O)[C@@H](NC(=O)[C@H](CC1CCCCC1)NC(=O)[C@H](CCCCN)NC(=O)[C@@H](C)N)C(C)C)[C@@H](C)O)C(=O)N[C@@H](CCCCN)C(=O)N[C@@H](C)C(=O)N[C@@H](C)C(=O)N[C@H](C)C(N)=O` [Peptide 965.10]: in the experiment on human PBMC T cell lines, the “Donors with significant (>10,000 cpm) T cell response / donors tested, second stimulation” value is 9/12 and all 5 individuals; the “Donors with significant (>10,000 cpm) T cell response / donors tested, third stimulation” value was 11 of 12 and all 5 individuals. Besides, in the experiment with IE^k (Table III), the IC50 came out at 326 nM. In the experiment on C57BL/6J (H-2^b+) mice, this compound gave an Effective immunizing dose of 0.05 μg/mouse.

`CC[C@H](C)[C@H](NC(=O)CNC(=O)[C@@H](NC(=O)[C@H](Cc1ccccc1)NC(=O)[C@H](CCCCN)NC(=O)[C@H](CO)NC(=O)[C@H](CC(N)=O)NC(=O)[C@H](C)NC(=O)[C@H](CCCCN)NC(=O)[C@@H](NC(=O)[C@H](Cc1ccc(O)cc1)NC(=O)[C@@H](N)CCC(N)=O)[C@@H](C)CC)[C@@H](C)CC)C(=O)N[C@H](C(=O)N[C@@H](CCC(=O)O)C(=O)O)[C@@H](C)O` [Tet Tox 830-843, reference compound]: in the experiment with human PBMC T cell lines, the “Donors with significant (>10,000 cpm) T cell response / donors tested, second stimulation” value was 3/12 and the “Donors with significant (>10,000 cpm) T cell response / donors tested, third stimulation” value is 7/12. Also, the “Capacity to bind purified IA^b, IC50” value on IA^b is reported as “did not bind IA^b appreciably”. Also, the “T cell proliferative response of primed lymph node cells” value in the experiment on C57BL/6J (H-2^b+) mice (sc) is listed as “unable to generate a specific T cell proliferative response”.

Consider aKFVAAWTLKAAa [Peptide 1024.03], for which the IC50 was determined as 3500 nM with IE^k; 18 nM in the experiment on DR5 (read-out: Binding capacity DR5, IC50); 23 nM in the experiment on DQ3.1 (read-out: Capacity to bind purified DQ3.1, IC50). Further, the Effective immunizing dose in the experiment with C57BL/6J (H-2^b+) mice turned out to be 0.05 μg/mouse.
